In patent publication US20170296545A1, “Composition Of A Ceramic Matrix With A Controlled Release Drug, A Tablet Obtained From The Composition And Methods For Obtaining The Composition And The Tablet” (priority 2009, published 2017):
Read-outs that look alike come from different tables or passages of the source.

Key:
[1] = cited from earlier work
Wistar rats [2] = details: rat, in vivo
Procedure: In the slices of the liver of the Wistar rats, it was evaluated the presence of hepatic necrosis, proliferation of biliary ducts, proliferation of fibrous conjunctive tissue, and blood extravasation (Cunha, et. al., 2009).

Wistar rats [3] = details: rat, in vivo; remark: listed apart in the source
Procedure: The tests were performed according to Organization for Economic Cooperation and development OECD 423 guide. The methodology consisted of toxicity by evaluating and analyzing of the biochemical and histopathological parameters which resulted from administration thereof.

Compound	solubility in acid or diluted alkaline solutions ([1]; acid or diluted alkaline solutions)	solubility in alcohol ([1]; alcohol)	solubility in water ([1]; water)	histopathological evaluation of the liver (Wistar rats [2]; 50 mg/kg)	histopathological evaluation of the liver (Wistar rats [2]; 300 mg/kg)	histopathological evaluation of the liver (Wistar rats [2]; 2000 mg/kg)	histopathological evaluation of the livers (Wistar rats [2]; po)	macroscopic tests of the organs (Wistar rats [2]; po)	short-term repeated-dose toxicity (Wistar rats [3])
Nc1nc2c(ncn2COCCO)c(=O)[nH]1 [acyclovir]	only slight soluble	insoluble	poorly soluble	–	–	–	–	–	–
pseudoboehmite	–	–	–	tissue integrity	a sinusoidal congestion was detected	tissue integrity	there were not observed any changes in the tissue integrity or apparent injuries	No abnormal changes	low
